Experimental data: ChEMBL document CHEMBL1201862, “PubChem BioAssay data set” (2004)
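Where inhibition never reached the appropriate level, the endpoint shown equals the highest concentration tested. Otherwise, values were interpolated linearly from a five-concentration, 48-hour dose response in 96-well plates. The concentration for 50% growth inhibition is given as GI50.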 Active and inactive are the calls of the source. Rule as the data show it: active = GI50 up to about 1.1 µM and inactive = higher.

Tests used:
Experiment in all cases: growth of human tumour cells (NCI), 48 h
[1] = test system: UO-31
[2] = test system: HOP-18
[3] = test system: TK-10
[4] = test system: HCT-15
[5] = test system: Malme-3M
[6] = test system: LOX IMVI
[7] = test system: OVCAR-4
[8] = test system: SNB-75
[9] = test system: NCI-H226
[10] = test system: HL-60
[11] = test system: EKVX
[12] = test system: U-251
[13] = test system: SF-268
[14] = test system: SK-MEL-5
[15] = test system: RPMI-8226
[16] = test system: NCI/ADR-RES
[17] = test system: MDA-MB-231
[18] = test system: Hs-578T
[19] = test system: T47D
[20] = test system: BT-549

| Structure (SMILES) | GI50 [1] | GI50 [2] | GI50 [3] | GI50 [4] [µM] | GI50 [5] | GI50 [6] | GI50 [7] | GI50 [8] | GI50 [9] | GI50 [10] | GI50 [11] | GI50 [12] | GI50 [13] | GI50 [14] | GI50 [15] | GI50 [16] | GI50 [17] | GI50 [18] | GI50 [19] | GI50 [20] |
| --- | --- | --- | --- | --- | --- | --- | --- | --- | --- | --- | --- | --- | --- | --- | --- | --- | --- | --- | --- | --- |
| N=C(N)Nc1nc2cc(N)ccc2o1 | > 100 µM (inactive) | > 100 µM (inactive) | > 100 µM (inactive) | > 100 | > 100 µM (inactive) | > 100 µM (inactive) | > 100 µM (inactive) | > 100 µM (inactive) | > 100 µM (inactive) | > 100 µM (inactive) | > 100 µM (inactive) | > 100 µM (inactive) | > 100 µM (inactive) |  |  |  |  |  |  |  |
| CCC1(N=[N+]=[N-])C(=O)Nc2cc(C)ccc2C1=O (centres undefined) | 46.7 µM (inactive) | 32.6 µM (inactive) | > 100 µM (inactive) | 72.1 | 68.1 µM (inactive) | 86.5 µM (inactive) | > 100 µM (inactive) | > 100 µM (inactive) |  | 21.3 µM (inactive) | 42.7 µM (inactive) | 96.2 µM (inactive) | > 100 µM (inactive) | 51.8 µM (inactive) |  |  |  |  |  |  |
| CCCN1CN(C(C(=O)N[C@@H]2C(=O)N3C(C(=O)O)=C(C)CSC23)c2ccc(O)cc2)CSC1=S (some centres undefined) | > 100 µM (inactive) | > 100 µM (inactive) | > 100 µM (inactive) | > 100 | > 100 µM (inactive) | 76.6 µM (inactive) | > 100 µM (inactive) | > 100 µM (inactive) |  | 65.9 µM (inactive) | > 100 µM (inactive) | 97.5 µM (inactive) | > 100 µM (inactive) | > 100 µM (inactive) | 72.1 µM (inactive) |  |  |  |  |  |
| COc1cccc2c1[C@]1(O)C(O)CCCC21 (some centres undefined) | > 100 µM (inactive) | 90.4 µM (inactive) | > 100 µM (inactive) | > 100 | > 100 µM (inactive) | > 100 µM (inactive) | > 100 µM (inactive) | > 100 µM (inactive) | > 100 µM (inactive) |  | > 10 µM (inactive) | > 100 µM (inactive) | > 100 µM (inactive) | > 100 µM (inactive) | > 100 µM (inactive) |  |  |  |  |  |
| O=C(O)C(F)(OC(F)(F)C(F)(OC(F)(F)C(F)(F)C(F)(F)F)C(F)(F)F)C(F)(F)F (centres undefined) | > 100 µM (inactive) |  | > 100 µM (inactive) | > 100 | > 100 µM (inactive) | > 100 µM (inactive) | > 100 µM (inactive) | > 100 µM (inactive) | > 100 µM (inactive) | > 100 µM (inactive) | > 100 µM (inactive) | > 100 µM (inactive) | > 100 µM (inactive) | > 100 µM (inactive) | > 100 µM (inactive) | > 100 µM (inactive) | > 100 µM (inactive) | > 100 µM (inactive) | > 100 µM (inactive) | > 100 µM (inactive) |
| CC1=C(O)C(=O)c2ccccc2C1=O | 21.5 µM (inactive) |  | 24.3 µM (inactive) | 27 | 9.02 µM (inactive) | 70.6 µM (inactive) | > 100 µM (inactive) | 44.3 µM (inactive) | > 100 µM (inactive) | 6.82 µM (inactive) | > 100 µM (inactive) | 34 µM (inactive) | 94.6 µM (inactive) | 4.45 µM (inactive) | 18.6 µM (inactive) | > 100 µM (inactive) | > 100 µM (inactive) | 78.2 µM (inactive) | > 100 µM (inactive) | 18.6 µM (inactive) |
| O=C(C#Cc1ccccc1)NC/C=C/c1ccccc1 | 33.4 µM (inactive) | > 100 µM (inactive) | 47.3 µM (inactive) | 38.9 | 49.8 µM (inactive) | 38.5 µM (inactive) | 48.1 µM (inactive) | 17.8 µM (inactive) | 31.6 µM (inactive) | 24.1 µM (inactive) | > 100 µM (inactive) | 39 µM (inactive) | 31.5 µM (inactive) | 45.1 µM (inactive) |  |  |  |  |  |  |
| COc1c(CC(=O)c2ccccc2)c2ccccc2n1C(C)=O | 56.8 µM (inactive) | > 100 µM (inactive) |  | > 100 |  |  | > 100 µM (inactive) | > 100 µM (inactive) |  | > 100 µM (inactive) | 35.6 µM (inactive) | > 100 µM (inactive) |  |  | > 100 µM (inactive) |  |  |  |  |  |
| NCC1CCN(c2nc3ccccc3c3c2CCCC3)CC1 | 5.6 µM (inactive) |  | 12.9 µM (inactive) | 4.16 | 13.2 µM (inactive) | 4.81 µM (inactive) | 10.5 µM (inactive) | 4.21 µM (inactive) | 16.7 µM (inactive) | 2.84 µM (inactive) | 11.8 µM (inactive) | 5.35 µM (inactive) | 2.78 µM (inactive) | 2.96 µM (inactive) | 2.31 µM (inactive) | 12.9 µM (inactive) | 5.57 µM (inactive) | 20.1 µM (inactive) | 2.28 µM (inactive) | 14.2 µM (inactive) |
| N=C(N)NS(=O)(=O)c1ccc(NCc2cccc3c(=O)c4ccc(Cl)cc4oc23)cc1 | 5.41 µM (inactive) |  | > 10.4 µM (inactive) | 4.93 | 4.59 µM (inactive) | 4.48 µM (inactive) | > 11.2 µM (inactive) | 3.08 µM (inactive) | > 25 µM (inactive) | 1.38 µM (inactive) | > 9.53 µM (inactive) | 5.22 µM (inactive) | 4.33 µM (inactive) | 9.4 µM (inactive) | 4.61 µM (inactive) | 7.8 µM (inactive) | > 10.8 µM (inactive) | 4.37 µM (inactive) | > 6.18 µM (inactive) | 7.18 µM (inactive) |
| CC(C)(C)c1cc(C(O)(C(F)(F)F)C(F)(F)F)c2c(c1)C(C(F)(F)F)(C(F)(F)F)OC(c1ccccc1)(C(C)(C)C)N2 (centres undefined) | 4.04 µM (inactive) | 0.515 µM (active) | 3.02 µM (inactive) | 3.56 | 7.06 µM (inactive) |  | 14.4 µM (inactive) | 2.82 µM (inactive) | 3.24 µM (inactive) |  | 5.18 µM (inactive) | 3.3 µM (inactive) |  | 2.45 µM (inactive) | 3.07 µM (inactive) |  |  |  |  |  |
| CC(=O)[C@@]1(O)CC[C@H]2[C@@H]3C[C@H](C)C4=CC(=O)CC[C@]4(C)[C@H]3[C@@H](O)C[C@@]21C | > 100 µM (inactive) |  | > 100 µM (inactive) | > 100 | > 100 µM (inactive) | > 100 µM (inactive) | > 100 µM (inactive) | > 100 µM (inactive) | > 100 µM (inactive) | > 100 µM (inactive) | 68.7 µM (inactive) | > 100 µM (inactive) | > 100 µM (inactive) | > 100 µM (inactive) | < 0.01 µM (active) | > 100 µM (inactive) | > 100 µM (inactive) | 68.1 µM (inactive) | 94.2 µM (inactive) | > 100 µM (inactive) |
| CNC(=O)C(C)Oc1ccc(OCC2CCCCC2)cc1 (centres undefined) | 31.7 µM (inactive) | 16.3 µM (inactive) | > 100 µM (inactive) | > 100 | 25.3 µM (inactive) | > 100 µM (inactive) | > 100 µM (inactive) | 96.2 µM (inactive) | > 100 µM (inactive) | 34.4 µM (inactive) |  | > 100 µM (inactive) | > 100 µM (inactive) | 82.6 µM (inactive) |  |  |  |  |  |  |
| CC1(C)OCC(C2OC3OC(C)(C)OC3C2N)O1 (centres undefined) | > 100 µM (inactive) |  | > 100 µM (inactive) | > 100 | > 100 µM (inactive) | > 100 µM (inactive) | > 100 µM (inactive) | > 100 µM (inactive) | > 100 µM (inactive) | > 100 µM (inactive) | > 100 µM (inactive) | > 100 µM (inactive) | > 100 µM (inactive) | > 100 µM (inactive) | > 100 µM (inactive) | > 100 µM (inactive) | > 100 µM (inactive) | > 100 µM (inactive) | > 100 µM (inactive) | > 100 µM (inactive) |
| O=C1N(Cl)C(=O)C(c2ccc(Cl)cc2)(c2ccc(Cl)cc2)N1Cl | 92.5 µM (inactive) | > 100 µM (inactive) | > 100 µM (inactive) | 91.8 | > 100 µM (inactive) |  | > 100 µM (inactive) | > 100 µM (inactive) | > 100 µM (inactive) | 26.1 µM (inactive) | > 100 µM (inactive) | > 100 µM (inactive) | > 100 µM (inactive) | > 100 µM (inactive) | 41.2 µM (inactive) |  |  |  |  |  |
| CCOC(=O)c1cc(OC(=O)CC)c2c(OC)ccc(OC)c2c1 | 74.1 µM (inactive) | > 100 µM (inactive) | 47.1 µM (inactive) | 25.9 | > 100 µM (inactive) |  | 52.4 µM (inactive) | 11.4 µM (inactive) |  |  | 35.8 µM (inactive) | 53.6 µM (inactive) |  | > 100 µM (inactive) | 30.5 µM (inactive) |  |  |  |  |  |
| CCOc1ccc(NC(=O)C(=O)C(C(=O)c2ccc3ccccc3c2)C2OC(=O)c3ccccc32)cc1 (centres undefined) | 15.7 µM (inactive) | 17.7 µM (inactive) | 50.7 µM (inactive) | 13.7 | 10.9 µM (inactive) | 15.7 µM (inactive) | 12.5 µM (inactive) | 15.7 µM (inactive) | 3.31 µM (inactive) |  | > 100 µM (inactive) | 5.04 µM (inactive) | 13.3 µM (inactive) | 14.2 µM (inactive) | 4.8 µM (inactive) |  |  |  |  |  |
| Oc1ccc(/C=C/c2cc(O)cc3c2C(c2cc(O)cc(O)c2)C(c2ccc(O)c(O)c2)O3)cc1 (centres undefined) | 30.9 µM (inactive) |  | 27.1 µM (inactive) | 20 | 26.7 µM (inactive) | 27 µM (inactive) | 16.8 µM (inactive) | 49.5 µM (inactive) | 26 µM (inactive) | 27.1 µM (inactive) | 25.3 µM (inactive) | 31 µM (inactive) | 30.6 µM (inactive) | 17.2 µM (inactive) | 13.5 µM (inactive) | 31.8 µM (inactive) | 29 µM (inactive) | 26.4 µM (inactive) | 13.1 µM (inactive) | 23.7 µM (inactive) |
